According to US20150141367A1, “MODULATION OF GROWTH OF BIFIDOBACTERIA USING A COMBINATION OF OLIGOSACCHARIDES FOUND IN HUMAN MILK” (NESTEC S.A., priority 2011, published 2015):

How the values were obtained:
[1] = tested on: Bifidobacterium Breve ATCC 15700; test: Growth of bifidobacteria in RCM without glucose, optical density at 595 nm over 30 hours; type: cell-based
Experimental: (§1) Reinforced Clostridia Medium (RCM) was used for cultivating the bifidobacteria. RCM without glucose was used as a control medium. RCM is a well-known medium for cultivating and enumerating anaerobes, which was first formulated by Hirsch and Grinstead, J. Dairy Res., 21:101 (1954). The test ingredients were 2′-fucosyllactose, 6′-sialyllactose and 3′-sialyllactose dissolved in the control medium at the following concentrations: 1 mg/ml 2′-fucosyllactose; 1 mg/ml 6′-sialyllactose; and, 2 mg/ml 3′-sialyllactose. The bifidobacteria were separately grown overnight anaerobically in RCM, and were then measured and diluted to an optical density of 0.1 as measured by absorbance spectroscopy at 595 nm, and were then further diluted ten-fold to make a working stock. For each test, 50 μl of working stock was added to each well of a 96 well plate containing either 200 μl of control medium (48 wells) or 200 μl test ingredient solution (48 wells). The plate was grown anaerobically for 30 hours and optical density was read at abs 595 nm every 15 minutes. The values for like wells were averaged and plotted over time (FIGS. 1, 3, and 5-7), and the area under the curve (AUC) was calculated over the 30-hour period (FIGS. 2 and 4).

[2] = tested on: Bifidobacterium Infantis ATCC 15697; test: as above; type: cell-based; conditions: for growth in wells containing the test ingredient vs control medium: abs 595 nm; for effect on the growth of Bifidobacterium infantis (summary statement): summary in description
Experimental: as §1

Row | SMILES | growth in wells containing the test ingredient vs control medium ([1]; 2 mg/ml 3′-sialyllactose, after grown for 6 hours, abs 595 nm, FIG. 6) | effect on the growth of Bifidobacterium breve (summary statement) ([1]; summary in description) | growth in wells containing the test ingredient vs control medium ([2]; 2 mg/ml 3′-sialyllactose, after grown for 8 hours, FIG. 7) | effect on the growth of Bifidobacterium infantis (summary statement) [2] | growth in wells containing the test ingredient vs control medium ([2]; 1 mg/ml 6′-sialyllactose, after grown for 12 hours, FIG. 5)
1 | CC(=O)N[C@H]1[C@H]([C@H](O)[C@H](O)CO)O[C@@](O[C@H]2[C@@H](O)[C@@H](CO)O[C@@H](O[C@H]3[C@H](O)[C@@H](O)C(O)O[C@@H]3CO)[C@@H]2O)(C(=O)O)C[C@@H]1O (stereo partly drawn) [3′-sialyllactose] | significantly greater | stimulates the growth | significantly greater | stimulates the growth | –
2 | CC(=O)N[C@H]1[C@H]([C@H](O)[C@H](O)CO)O[C@@](OC[C@H]2O[C@@H](O[C@H]3[C@H](O)[C@@H](O)[C@H](O)O[C@@H]3CO)[C@H](O)[C@@H](O)[C@H]2O)(C(=O)O)C[C@@H]1O [6′-sialyllactose] | – | – | – | stimulates the growth | significantly greater
